Results reported in paper PMC5154685 (Journal of medicinal chemistry, 2016).

Columns and labels:
[1] = biological target: Eis_Mtb acetyltransferase (Mycobacterium tuberculosis, UniProt P9WFK7); format: biochemical; conditions: for Extent of Eis inhibition of HTS compounds (in words): follow-up description
[2] = biological target: AAC(2′)-Ic (Mycobacterium tuberculosis, UniProt P9WQG9); assay: Inhibitor selectivity, AAC
[3] = biological target: AAC(6′)-Ie/APH(2″)-Ia (Staphylococcus aureus, UniProt P0A0C1); assay: Inhibitor selectivity, AAC; format: biochemical; conditions: concentrations as high as 200 μM
Sequence of AAC(6′)-Ie/APH(2″)-Ia (P0A0C1 whole entry): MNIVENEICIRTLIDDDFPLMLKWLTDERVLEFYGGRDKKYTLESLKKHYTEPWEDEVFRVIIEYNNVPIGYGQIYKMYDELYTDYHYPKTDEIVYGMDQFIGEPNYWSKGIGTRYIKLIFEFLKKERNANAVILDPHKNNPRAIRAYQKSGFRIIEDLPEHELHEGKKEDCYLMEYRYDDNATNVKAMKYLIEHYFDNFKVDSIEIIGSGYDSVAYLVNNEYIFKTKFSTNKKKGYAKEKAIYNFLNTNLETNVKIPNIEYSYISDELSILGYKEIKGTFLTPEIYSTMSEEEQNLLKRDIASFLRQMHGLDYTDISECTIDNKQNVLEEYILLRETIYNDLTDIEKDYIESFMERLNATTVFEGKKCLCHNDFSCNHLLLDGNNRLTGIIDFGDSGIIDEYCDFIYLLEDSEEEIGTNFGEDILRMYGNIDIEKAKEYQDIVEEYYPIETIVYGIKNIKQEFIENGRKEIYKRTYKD

Sequence of Eis_Mtb acetyltransferase (P9WFK7 whole entry): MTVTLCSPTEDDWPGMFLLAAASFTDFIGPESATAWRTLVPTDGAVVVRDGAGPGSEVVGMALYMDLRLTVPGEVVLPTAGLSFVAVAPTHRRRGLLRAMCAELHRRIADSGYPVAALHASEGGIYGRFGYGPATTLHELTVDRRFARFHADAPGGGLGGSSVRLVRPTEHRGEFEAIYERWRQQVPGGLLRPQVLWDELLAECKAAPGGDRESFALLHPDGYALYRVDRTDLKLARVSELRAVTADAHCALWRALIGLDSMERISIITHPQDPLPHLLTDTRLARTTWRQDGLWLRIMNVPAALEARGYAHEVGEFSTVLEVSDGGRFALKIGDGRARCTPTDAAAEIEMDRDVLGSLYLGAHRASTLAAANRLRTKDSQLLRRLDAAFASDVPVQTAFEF
Sequence of AAC(2′)-Ic (P9WQG9 whole entry): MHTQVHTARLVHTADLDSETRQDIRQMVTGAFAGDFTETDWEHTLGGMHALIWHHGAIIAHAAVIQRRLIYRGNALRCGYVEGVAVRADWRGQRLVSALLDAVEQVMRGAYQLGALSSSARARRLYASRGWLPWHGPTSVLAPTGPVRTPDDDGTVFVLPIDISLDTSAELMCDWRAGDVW

CN(c1ccc(Br)cc1)S(=O)(=O)c1ccc2[nH]c(=O)c(=O)[nH]c2c1 [Compound 29, N-(4-Bromophenyl)-N-methyl-2,3-dioxo-1,2,3,4-tetrahydro-6-quinoxalinesulfonamide]
Eis inhibition in the HTS (hit or not) [1]: hits

Cc1cc(NS(=O)(=O)c2ccc3[nH]c(=O)c(=O)[nH]c3c2)ccc1Br [Compound 1]
Extent of Eis inhibition of HTS compounds (in words) [1]: modest Eis inhibition

O=c1[nH]c2ccc(S(=O)(=O)Nc3ccc4c(c3)OCCO4)cc2[nH]c1=O [Compound 4]
Extent of Eis inhibition of HTS compounds (in words) [1]: modest Eis inhibition

CN(c1ccc2ccccc2c1)S(=O)(=O)c1ccc2[nH]c(=O)c(=O)[nH]c2c1 [Compound 46, N-(2-Naphthyl)-N-methyl-2,3-dioxo-1,2,3,4-tetrahydro-6-quinoxalinesulfonamide]
inhibition of acetylation by AAC(2′)-Ic (in words) [2]: did not inhibit
inhibition of acetylation by AAC(6′)-Ie/APH(2″)-Ia (in words) [3]: did not inhibit

COc1cccc(N(C)S(=O)(=O)c2ccc3[nH]c(=O)c(=O)[nH]c3c2)c1 [Compound 39, N-(3-Methoxyphenyl)-N-methyl-2,3-dioxo-1,2,3,4-tetrahydro-6-quinoxalinesulfonamide]
inhibition of acetylation by AAC(6′)-Ie/APH(2″)-Ia (in words) [3]: did not inhibit

O=c1[nH]c2ccc(S(=O)(=O)Nc3ccc(Cl)c(C(F)(F)F)c3)cc2[nH]c1=O [Compound 3]
Extent of Eis inhibition of HTS compounds (in words) [1]: modest Eis inhibition
